# Data: article PMC6226472, “Cardol triene inhibits dengue infectivity by targeting kl loops and preventing envelope fusion” (Scientific Reports, 2018)
# Legend:
# [1] = test system: normal human lung fibroblast cell line, GM07492A; set-up: method as in PMID 27934289; conditions: read-out: cytotoxicity value (CC50); cited from earlier work
# DENV2 [2] = assay: Fusion inhibition study in C6/36 cells; assay type: cell-based, Dengue virus; conditions: 10 µM, C6/36, M.O.I. of 1, 48 h, MES
# Description: (§1) Fusion inhibition study[25]–[27] of DENV and ZIKV were used to confirm the findings. Briefly, cardol triene at 10 µM was added to DENV2 or ZIKV (Fig. 6C-D) infected C6/36 cells at the M.O.I. of 1 for 48 h before inducing acidic condition by MES. The 4G2 antibody was used as a positive control inhibiting both DENV2 and ZIKV fusion. […] Therefore, we concluded that one of the targets of cardol triene, and other CNSL-derived phenolic lipids, was the kl loops of DENV E protein, thus preventing the conformational change of DENV dimer to trimer that was required to initiate pH-dependent fusion.
# (§2) C6/36 (2 × 10^5) cells were seeded into 24-well plates before infection with DENV2 and ZIKV (M.O.I. of 1) as described. Cardol triene at 10 µM were introduced to the DENV2 and ZIKV infected cells during and after infection. […] Cells were incubate at 28 °C for 2 days before addition of 0.5 M 2-(N-morpholino) ethanesulfonic acid (MES) (pH 5.0) (Sigma Aldrich, St Louis, USA). Moreover, cells from selected wells subsequently underwent DAPI staining. Cell-cell fusion was observed under brightfield and fluorescence using an Eclipse TS100 Inverted Routine Microscope (Nikon, New York, USA).
# [3] = test system: BHK-21/DENV2 replicon cells; assay: Replicon cell viability, MTS assay; assay type: cell-based; conditions: 10 µM and 20 µM, 72 h
# Description: (§3) We analyzed the replication inhibition using BHK-21/DENV2 replicon cells stably expressed the non-structural proteins. Cardol triene at 10 µM and 20 µM were added to the replicon cells for 72 h and the replication inhibition was accessed by RT-qPCR of DENV2 NS1. Ribavirin, a known inhibitor of flaviviral replication, was used as a positive inhibition control. […] Replicon cell viability under cardol triene treatment was also analyzed using an MTS assay. […] Therefore, we concluded that cardol triene inhibited DENV RNA replicon replication, potentially in dose-dependent manner.
# Figure 7 Replicon inhibition study. (A) DENV2/BHK-21 replicon (5 × 10^4 cells) were treated with cardol triene or ribavirin for 72 h. Percent inhibition was calculated from RT-qPCR of cell lysate. (B) Percent DENV2/BHK-21 replicon cell viability at 72 h under 10 and 20 µM cardol triene. Error bars represented standard error of means (SEM) from three independent experiments.
# [4] = test system: dengue virus serotype 1–4; assay: Pan-dengue inhibition (EC50s over serotypes); assay type: cell-based; conditions: DENV1, read-out: EC50s, pan-dengue inhibition
# [5] = test system: BHK-21/DENV2 replicon cells; assay: Replicon inhibition study, RT-qPCR of DENV2 NS1; assay type: cell-based, Dengue virus; conditions: 72 h
# Description: as §3
# BHK-21 (5 × 10^4) cells expressing DENV-2 replicon (BHK-21/DENV2)[44] were seeded as previously described. Cardol triene at 10 µM and 20 µM, DMSO, and ribavirin (TargetMol, USA) were added to the replicon cells and incubated at 37 °C for 3 days. Cells lysates were collected and viral RNA was quantified by RT-qPCR as previously described. Data were reported as percent inhibition compared with ribavirin. Three biological replicates were performed and results were means and SEM of all replicates.
# ZIKV = assay: Fusion inhibition study in C6/36 cells; assay type: cell-based, Zika virus; conditions: 10 µM, C6/36, M.O.I. of 1, 48 h, MES
# Description: as §1, §2
# [6] = Cytotoxic concentration (CC50), MTS; assay type: cell-based; conditions: African green monkey, Vero cells
# Description: Cytotoxic concentrations (CC50) were also studied using Vero cells. Briefly, the 10^4 cells were seeded into each well of 96-well plates. After an overnight incubation, phenolic lipids were serially diluted in DMSO to the final concentrations as follows; 25, 50, 100, 200, 300, 400, and 500 µM. Each concentration was performed in quadruplicates. DMSO at 1% was used as a mock treatment referring to 100% cell viability. Cells were incubated for 48 h before cell viability was accessed using CellTiler 96® Aqueous One Solution Cell Proliferation Assay kit (Promega, Wisconsin, USA). Non-linear regression analysis was used to determine cytotoxic concentrations (CC50) of each experiment.
# ZIKV (sv0010/15) = assay: Efficacy (EC50) in infected Vero cells; assay type: cell-based, Zika virus
# DENV2 [7] = assay: Time of drug addition study (TOA); assay type: cell-based, Dengue virus; conditions: 10 and 20 µM, added 0-48 h after infection, 72 h incubation
# Description: Time of drug addition assay is a standard method to primarily identify the possible target of a newly characterized compound[20]. Based on the previous efficacy results, cardol triene was chosen as a representative of all CNSL-derived phenolic lipids. Cardol triene was prepared in DMSO and added to the final concentrations of 10 µM and 20 µM to DENV2 infected Vero cells (M.O.I. of 0.1). The compound was added to the cells at different time-points. DMSO alone was added to the infected cells as a mock treatment. After 72 h incubation, cell lysates and supernatants were collected for analysis of intracellular RNAs and infectious virions by RT-qPCR and plaque titration, respectively.
# Vero (5 × 10^4) cells were seeded into each well of 24-well plates. cells were infected with DENV2 (M.O.I. of 0.1) after an overnight incubation[44],[45]. Cardol triene (C15:3) at 10 and 20 µM were added to the cells during (0 h) and after infections at early time-points as follows; 1, 2, 4, 6, 8, 10, 12, 24, 36, and 48 h. Moreover, late time-points after were also accessed at 12, 14, 16, 18, 20, 22, 24, 36, 48, 60, and 72 h after infections. DMSO alone was added to the infected cells at respective time-points as a mock treatment referring to 100% infectivities. […] Data were calculated, assembled, and reported as percent intracellular RNAs and infectious virions under the drug treatment at designated time-points.
smiles,measurement,setting,value
"C=CC/C=C/C/C=C/CCCCCCCc1cc(O)cc(O)c1 [Cardol triene, 5-[8(Z), 11(Z), 14-pentadecatrienyl]resorcinol]",CC50,[1],193 ± 6 µM
same,DENV2 pH-dependent cell fusion,DENV2 [2],exclusively inhibited dengue fusion
same,replicon cell viability,[3],did not have effect on cell viability
same,EC50,[4],5.35 to 8.89 µM
same,DENV2 RNA inhibition,[5]; 10 µM,76.60 ± 7.59%
same,DENV2 RNA inhibition,[5]; 20 µM,89.44 ± 4.02%
same,ZIKV pH-dependent cell fusion,ZIKV,ZIKV-induced fused cells and nuclei were present
same,CC50 at 48 h,[6],207 ± 5.24 µM
same,Zika virus inhibition,ZIKV (sv0010/15),did not inhibit
same,intracellular RNAs and infectious virions by time of drug addition,DENV2 [7],decreased immediately at 1 h and persisted until 48 h after infections
